Test results: US20250257061A1, “COMPOSITIONS AND METHODS FOR TREATING CANCER AND REDUCING WNT MEDIATED EFFECTS” (StemSynergy Therapeutics, Inc., priority 2024, published 2025)
Like-named read-outs stand apart in the source and are kept apart here.

Assays:
[1] = tested on: Wnt reporter (TCF/LEF1 promoter); experiment: HEK STF293 Wnt reporter (TOPFlash) luciferase assay, Steady Glo normalised to Cell Titer; format: cell-based, human; settings: Examples for Formulae (IV), (V), (VI), and (VII), HEK STF293 cells, Wnt3a-conditioned media, read-out: TOPFlash IC50 category
Procedure: All compounds were tested using the human cell line HEK STF293. This cell line carries a Wnt reporter (TCF/LEF1 promoter), which drives expression of the firefly luciferase protein. The level of Wnt activity is directly correlated with the level of luciferase activity (determined using a simple assay). Compounds that inhibit Wnt signaling by reducing luciferase activity in these two cell lines are further tested biochemically. […] Compounds were further tested in a Viability assay using Wnt-dependent HCT116 cell line. Compounds were prepared as 10 mM stocks for each compound in DMSO. Dilutions were prepared in a 96-well plate in DMSO. The stock dilutions are as follows: 10 mM, 1 mM, 100 μM, 10 μM, 100 nM, and 10 nM. Plates were sealed and stored at −20° C. […] On the first day, Wnt3a-conditioned media (1:1) were added along with diluted compounds (1:100). […] The final concentrations should therefore be 100 μM, 10 μM, 1 μM, 100 nM, 10 nM, and 1 nM. On the second day, the media was removed and 75 μL of Passive Lysis Buffer (Promega) is added to each well. The plate was shaken at 130 rpm for 15 minutes. For the Steady Glo assay, 45 μL of the lysis was removed and added to a white 96-well plate containing 45 μL/well of Steady Glo solution (Promega). For the Cell Titer assay, 25 μL of the lysis was transferred to a white 96-well plate containing 25 μL/well of Cell Titer solution (Promega). Both Steady Glo and Cell Titer assays were read with a luminescence plate reader. When determining EC50, the Steady Glo values were divided by the Cell Titer values to normalize for cell number. All compounds were tested using the human cell line HEK STF293. This cell line carries a Wnt reporter (TCF/LEF1 promoter), which drives expression of the firefly luciferase protein. The level of Wnt activity is directly correlated with the level of luciferase activity (determined using a simple assay). Compounds that inhibit Wnt signaling by reducing luciferase activity in these two cell lines are further tested biochemically. […] Compounds were further tested in a Viability assay using Wnt-dependent HCT116 cell line. Compounds were prepared as 10 mM stocks for each compound in DMSO. Dilutions were prepared in a 96-well plate in DMSO. The stock dilutions are as follows: 10 mM, 1 mM, 100 μM, 10 μM, 100 nM, and 10 nM. Plates were sealed and stored at −20° C. […] On the first day, Wnt3a-conditioned media (1:1) were added along with diluted compounds (1:100). […] The final concentrations should therefore be 100 μM, 10 μM, 1 μM, 100 nM, 10 nM, and 1 nM. On the second day, the media was removed and 75 μL of Passive Lysis Buffer (Promega) is added to each well. The plate was shaken at 130 rpm for 15 minutes. For the Steady Glo assay, 45 μL of the lysis was removed and added to a white 96-well plate containing 45 μL/well of Steady Glo solution (Promega). For the Cell Titer assay, 25 μL of the lysis was transferred to a white 96-well plate containing 25 μL/well of Cell Titer solution (Promega). Both Steady Glo and Cell Titer assays were read with a luminescence plate reader. When determining EC50, the Steady Glo values were divided by the Cell Titer values to normalize for cell number. All compounds were tested using the human cell line HEK STF293. This cell line carries a Wnt reporter (TCF/LEF1 promoter), which drives expression of the firefly luciferase protein. The level of Wnt activity is directly correlated with the level of luciferase activity (determined using a simple assay). Compounds that inhibit Wnt signaling by reducing luciferase activity in these two cell lines are further tested biochemically. […] Compounds were further tested in a Viability assay using Wnt-dependent HCT116 cell line. Compounds were prepared as 10 mM stocks for each compound in DMSO. Dilutions were prepared in a 96-well plate in DMSO. The stock dilutions are as follows: 10 mM, 1 mM, 100 μM, 10 μM, 100 nM, and 10 nM. Plates were sealed and stored at −20° C. […]

[2] = tested on: Wnt-dependent HCT116 cell line; experiment: Viability assay using Wnt-dependent HCT116 cell line (Cell Titer Glo); format: cell-based; settings: Examples for Formulae (IV), (V), (VI), and (VII), HCT116 cells, read-out: Viability IC50 category
Procedure: All compounds were tested using the human cell line HEK STF293. This cell line carries a Wnt reporter (TCF/LEF1 promoter), which drives expression of the firefly luciferase protein. The level of Wnt activity is directly correlated with the level of luciferase activity (determined using a simple assay). Compounds that inhibit Wnt signaling by reducing luciferase activity in these two cell lines are further tested biochemically. […] Compounds were further tested in a Viability assay using Wnt-dependent HCT116 cell line. HEK293 cells were seeded in a 6-well plate at approximately 8.0×10^5 cells (2 mL per well). On the first day, Wnt3a-conditioned media (1:1) and compounds (1:100) were added to the plated cells. The final concentrations of compounds were 1 μM, 500 nM, and 100 nM. Vehicle (DMSO) and a Wnt3a-conditioned media plus Vehicle samples were also prepared as controls. Lysates were collected (with non-denaturing lysis buffer) after 24 hours incubation, and protein concentrations determined by Bradford Assay. Immunoblotting with an anti-beta-catenin antibody (equivalent amounts of protein/lane for each condition) were subsequently performed to determine beta-catenin levels. HCT116 cells were seeded at 2,500 cells/well in a 96-well dish (Volume: 100 μL/well). On the second day, the 10 mM stock solution of each test compound was thawed at room temperature. Dilutions of the test compound were prepared in DMSO in a V-bottom 96-well plate. The stock compound solution, DMSO-diluted compound solutions, and DMSO were further diluted 500-fold in cell culture media, and 100 μL of the compound- or DMSO-containing cell culture media was added to each well of the cells. […] The final DMSO concentration was 0.1% in all wells. On the fifth day, 150 μL of media was removed from each well. 50 μL/well Cell Titer Glo reagent (Promega) was added to each well. The plate was shaken at 130 rpm for 15 minutes at room temperature, and the cell viability was determined using a luminescence plate reader. All compounds were tested using the human cell line HEK STF293. This cell line carries a Wnt reporter (TCF/LEF1 promoter), which drives expression of the firefly luciferase protein. The level of Wnt activity is directly correlated with the level of luciferase activity (determined using a simple assay). Compounds that inhibit Wnt signaling by reducing luciferase activity in these two cell lines are further tested biochemically. […] Compounds were further tested in a Viability assay using Wnt-dependent HCT116 cell line. HEK293 cells were seeded in a 6-well plate at approximately 8.0×10^5 cells (2 mL per well). On the first day, Wnt3a-conditioned media (1:1) and compounds (1:100) were added to the plated cells. The final concentrations of compounds were 1 μM, 500 nM, and 100 nM. Vehicle (DMSO) and a Wnt3a-conditioned media plus Vehicle samples were also prepared as controls. Lysates were collected (with non-denaturing lysis buffer) after 24 hours incubation, and protein concentrations determined by Bradford Assay. Immunoblotting with an anti-beta-catenin antibody (equivalent amounts of protein/lane for each condition) were subsequently performed to determine beta-catenin levels. HCT116 cells were seeded at 2,500 cells/well in a 96-well dish (Volume: 100 μL/well). On the second day, the 10 mM stock solution of each test compound was thawed at room temperature. Dilutions of the test compound were prepared in DMSO in a V-bottom 96-well plate. The stock compound solution, DMSO-diluted compound solutions, and DMSO were further diluted 500-fold in cell culture media, and 100 μL of the compound- or DMSO-containing cell culture media was added to each well of the cells. […] The final DMSO concentration was 0.1% in all wells. On the fifth day, 150 μL of media was removed from each well. 50 μL/well Cell Titer Glo reagent (Promega) was added to each well. The plate was shaken at 130 rpm for 15 minutes at room temperature, and the cell viability was determined using a luminescence plate reader. […]

Question: With Cc1nc(N(C)S(=O)(=O)c2ccc(C(F)(F)F)cc2)oc1C(=O)Nc1nc(-c2ccccn2)cs1 [Example 50] as the compound, how does the IC50 [1] read?
Answer: The IC50 was 200 to 500 nM.

Question: And the IC50 [2]?
Answer: Its IC50 is 200 to 500 nM.

Question: Which IC50 ([1]; Homo sapiens, STF/293) does the source give for Cc1nc(N(C)S(=O)(=O)c2cccc(Cl)c2)oc1C(=O)Nc1nc(-c2ccccn2)cs1 [Example 51] here?
Answer: Its IC50 is 500 to 1000 nM.

Question: What about the IC50 ([2]; Homo sapiens, HCT-116) of the same compound?
Answer: The IC50 was 500 to 1000 nM.

Question: What does the source list for Cc1nc(N(C)S(=O)(=O)c2ccc(Cl)cc2)oc1C(=O)Nc1nc(-c2ccccn2)cs1 [Example 52]?
Answer: IC50 ([1]; Homo sapiens, STF/293): 500 to 1000 nM; IC50 ([2]; Homo sapiens, HCT-116): 500 to 1000 nM

Question: What does the source list for CN(c1nc(C(F)(F)F)c(C(=O)Nc2nc(-c3ccccn3)cs2)o1)S(=O)(=O)c1ccc(Cl)cc1 [Example 53]?
Answer: IC50 [1]: 500 to 1000 nM; IC50 [2]: 500 to 1000 nM

Question: What does the source list for CN(c1nc(C(F)(F)F)c(C(=O)Nc2nc(-c3ccccn3)cs2)o1)S(=O)(=O)c1ccc(F)cc1 [Example 54]?
Answer: IC50 ([1]; Homo sapiens, STF/293): 1000 to 10000 nM; IC50 ([2]; Homo sapiens, HCT-116): 1000 to 10000 nM

Question: For CN(c1nc(C(F)(F)F)c(C(=O)Nc2nc(-c3ccccn3)cs2)o1)S(=O)(=O)c1ccc(C(F)(F)F)cc1 [Example 55], which IC50 ([1]; Homo sapiens, STF/293) is on record?
Answer: Its IC50 is 200 to 500 nM.

Question: What about the IC50 ([2]; Homo sapiens, HCT-116) of the same compound?
Answer: The IC50 was 200 to 500 nM.

Question: How did the IC50 [1] turn out when CN(c1nc(C(F)(F)F)c(C(=O)Nc2nc(-c3ccccn3)cs2)o1)S(=O)(=O)c1ccccc1Cl [Example 56] was run?
Answer: Its IC50 is 500 to 1000 nM.

Question: And the IC50 [2]?
Answer: Its IC50 is 500 to 1000 nM.

Question: Which IC50 ([1]; Homo sapiens, STF/293) does the source give for CCS(=O)(=O)N(C)c1nc(-c2ccc(F)cc2)c(C(=O)Nc2nc(-c3ccccn3)cs2)o1 [Example 57] here?
Answer: The IC50 was under 200 nM.

Question: And the IC50 ([2]; Homo sapiens, HCT-116)?
Answer: The IC50 was under 200 nM.

Question: What does the source list for CC(C)S(=O)(=O)N(C)c1nc(-c2ccc(F)cc2)c(C(=O)Nc2nc(-c3ccccn3)cs2)o1 [Example 58]?
Answer: IC50 ([1]; Homo sapiens, STF/293): < 200 nM; IC50 ([2]; Homo sapiens, HCT-116): < 200 nM

Question: With CC(C)CS(=O)(=O)N(C)c1nc(-c2ccc(F)cc2)c(C(=O)Nc2nc(-c3ccccn3)cs2)o1 [Example 60] as the compound, how does the IC50 ([1]; Homo sapiens, STF/293) read?
Answer: The IC50 was under 200 nM.

Question: And the IC50 ([2]; Homo sapiens, HCT-116)?
Answer: The IC50 was under 200 nM.

Question: What does the source list for CN(c1nc(-c2ccc(F)cc2)c(C(=O)Nc2nc(-c3ccccn3)cs2)o1)S(=O)(=O)c1ccc(C(F)(F)F)cc1 [Example 61]?
Answer: IC50 [1]: < 200 nM; IC50 [2]: < 200 nM

Question: Which IC50 [1] does the source give for Cc1onc(-c2ccc(C(F)(F)F)c(F)c2)c1C(=O)Nc1nc(-c2ccccn2)cs1 [Example 62] here?
Answer: Its IC50 is 200 to 500 nM.

Question: And the IC50 [2]?
Answer: The IC50 was under 200 nM.

Question: For Cc1onc(-c2ccc(C(F)(F)F)c(Cl)c2)c1C(=O)Nc1nc(-c2ccccn2)cs1 [Example 63], which IC50 ([1]; Homo sapiens, STF/293) is on record?
Answer: Its IC50 is 200 to 500 nM.

Question: And the IC50 ([2]; Homo sapiens, HCT-116)?
Answer: Its IC50 is 200 to 500 nM.

Question: What does the source list for Cc1nnc(-c2ccc(-c3nc(C)oc3C(=O)Nc3nc(-c4ccccn4)cs3)cc2)o1 [Example 65]?
Answer: IC50 [1]: < 200 nM; IC50 [2]: < 200 nM

Question: Which IC50 [1] does the source give for Cc1nc(-c2ccc(-c3nnc(C(F)(F)F)o3)cc2)c(C(=O)Nc2nc(-c3ccccn3)cs2)o1 [Example 66] here?
Answer: The IC50 was under 200 nM.

Question: And the IC50 [2]?
Answer: The IC50 was under 200 nM.
